Active and inactive are the calls of the source. No cut-off for these calls is given here.
Tests used:
[1] = tested on: NCI/ADR-RES; test: Effect on P-glycoprotein expression in human MCF7/ADR cells at 100 uM after 2 hrs by Western blot analysis; assay type: functional, cell-based
[2] = Initial drug concentration in Sprague-Dawley rat blood at 5 mg/kg, iv; assay type: ADME, organism-based; design: dose 5 mg/kg, route intravenous
[3] = AUC (0 to t) in Sprague-Dawley rat at 5 mg/kg, iv; assay type: ADME, organism-based; design: dose 5 mg/kg, route intravenous; conditions: plasma
[4] = Elimination half life in Sprague-Dawley rat at 5 mg/kg, iv; assay type: ADME, organism-based; design: dose 5 mg/kg, route intravenous; conditions: in vivo, read-out: beta t1/2 (converted)
[5] = Elimination rate constant in Sprague-Dawley rat at 5 mg/kg, iv; assay type: ADME, organism-based; design: dose 5 mg/kg, route intravenous; conditions: in vivo
[6] = tested on: Rattus norvegicus; test: Absolute bioavailability in Sprague-Dawley rat at 5 mg/kg, iv; assay type: ADME, organism-based; conditions: in vivo
[7] = Cmax in Sprague-Dawley rat at 15 mg/kg, po; assay type: ADME, organism-based; design: dose 15 mg/kg, route oral; conditions: in vivo
[8] = Tmax in Sprague-Dawley rat at 15 mg/kg, po; assay type: ADME, organism-based; design: dose 15 mg/kg, route oral; conditions: in vivo
[9] = AUC (0 to t) in Sprague-Dawley rat at 15 mg/kg, po; assay type: ADME, organism-based; design: dose 15 mg/kg, route oral; conditions: plasma
[10] = Elimination half life in Sprague-Dawley rat at 15 mg/kg, po; assay type: ADME, organism-based; design: dose 15 mg/kg, route oral; conditions: in vivo, read-out: beta t1/2 (converted)
[11] = Elimination rate constant in Sprague-Dawley rat at 15 mg/kg, po; assay type: ADME, organism-based; design: dose 15 mg/kg, route oral; conditions: in vivo
[12] = Absolute bioavailability in Sprague-Dawley rat at 15 mg/kg, po; assay type: ADME, organism-based; conditions: in vivo
[13] = tested on: A549; test: Anticancer activity against human A549 cells xenografted in BALB/c athymic nude male mouse assessed as tumor growth inhibition rate at 5 mg/kg, po in presence of 40 mg/kg, po PTX administered on day 1, 5, 9 and 13 post tumor implantation; assay type: functional
[14] = tested on: Mus musculus; test: Toxicity in human A549 cells xenografted in BALB/c athymic nude male mouse assessed as maximum weight loss at 5 mg/kg, po in presence of 40 mg/kg, po PTX administered on day 1, 5, 9 and 13 post tumor implantation; assay type: organism-based; conditions: in vivo
[15] = tested on: A549; test: Anticancer activity against human A549 cells xenografted in BALB/c athymic nude male mouse assessed as mouse tumor growth inhibition rate at 10 mg/kg, po in presence of 40 mg/kg, po PTX administered on day 1, 5, 9 and 13 post tumor implantation; assay type: functional
[16] = tested on: Mus musculus; test: Toxicity in human A549 cells xenografted in BALB/c athymic nude male mouse assessed as maximum weight loss at 10 mg/kg, po in presence of 40 mg/kg, po PTX administered on day 1, 5, 9 and 13 post tumor implantation; assay type: organism-based; conditions: in vivo
[17] = tested on: A549; test: Anticancer activity against human A549 cells xenografted in BALB/c athymic nude male mouse assessed as mouse survival rate at 5 mg/kg, po in presence of 40 mg/kg, po PTX administered on day 1, 5, 9 and 13 post tumor implantation; assay type: functional
[18] = tested on: A549; test: Anticancer activity against human A549 cells xenografted in BALB/c athymic nude male mouse assessed as mouse survival rate at 10 mg/kg, po in presence of 40 mg/kg, po PTX administered on day 1, 5, 9 and 13 post tumor implantation; assay type: functional
[19] = molecular target: T1, ATP-dependent translocase ABCB1 (Homo sapiens, UniProt P08183); test: Inhibition of P-glycoprotein in human MCF7/ADR cells assessed as daunomycin IC50 at 100 uM after 2 hrs; assay type: cell-based; conditions: nci/adr-res
[20] = molecular target: T1, ATP-dependent translocase ABCB1; test: Inhibition of P-glycoprotein in human MCF7/ADR cells assessed as increase in [3H]-DNM accumulation at 100 uM after 2 hrs relative untreated control; assay type: cell-based; design: Activity: scale not given: the % may be the effect or the level left; conditions: nci/adr-res
[21] = molecular target: P-glycoprotein (ABCB1) (Homo sapiens, UniProt P08183); test: (§1) Inhibition of P-glycoprotein in human MCF7/ADR cells assessed as reduction in [3H]-DNM efflux ratio at 100 uM after 1 hr relative untreated control; assay type: cell-based, NCI/ADR-RES; conditions: MCF7/ADR cells (NCI/ADR-RES), probe [3H]-DNM, read-out: Activity
[22] = molecular target: T1, ATP-dependent translocase ABCB1; test: as §1; assay type: cell-based, NCI/ADR-RES; conditions: nci/adr-res, 1 h, 100 µM

T1 sequence (P08183 whole entry): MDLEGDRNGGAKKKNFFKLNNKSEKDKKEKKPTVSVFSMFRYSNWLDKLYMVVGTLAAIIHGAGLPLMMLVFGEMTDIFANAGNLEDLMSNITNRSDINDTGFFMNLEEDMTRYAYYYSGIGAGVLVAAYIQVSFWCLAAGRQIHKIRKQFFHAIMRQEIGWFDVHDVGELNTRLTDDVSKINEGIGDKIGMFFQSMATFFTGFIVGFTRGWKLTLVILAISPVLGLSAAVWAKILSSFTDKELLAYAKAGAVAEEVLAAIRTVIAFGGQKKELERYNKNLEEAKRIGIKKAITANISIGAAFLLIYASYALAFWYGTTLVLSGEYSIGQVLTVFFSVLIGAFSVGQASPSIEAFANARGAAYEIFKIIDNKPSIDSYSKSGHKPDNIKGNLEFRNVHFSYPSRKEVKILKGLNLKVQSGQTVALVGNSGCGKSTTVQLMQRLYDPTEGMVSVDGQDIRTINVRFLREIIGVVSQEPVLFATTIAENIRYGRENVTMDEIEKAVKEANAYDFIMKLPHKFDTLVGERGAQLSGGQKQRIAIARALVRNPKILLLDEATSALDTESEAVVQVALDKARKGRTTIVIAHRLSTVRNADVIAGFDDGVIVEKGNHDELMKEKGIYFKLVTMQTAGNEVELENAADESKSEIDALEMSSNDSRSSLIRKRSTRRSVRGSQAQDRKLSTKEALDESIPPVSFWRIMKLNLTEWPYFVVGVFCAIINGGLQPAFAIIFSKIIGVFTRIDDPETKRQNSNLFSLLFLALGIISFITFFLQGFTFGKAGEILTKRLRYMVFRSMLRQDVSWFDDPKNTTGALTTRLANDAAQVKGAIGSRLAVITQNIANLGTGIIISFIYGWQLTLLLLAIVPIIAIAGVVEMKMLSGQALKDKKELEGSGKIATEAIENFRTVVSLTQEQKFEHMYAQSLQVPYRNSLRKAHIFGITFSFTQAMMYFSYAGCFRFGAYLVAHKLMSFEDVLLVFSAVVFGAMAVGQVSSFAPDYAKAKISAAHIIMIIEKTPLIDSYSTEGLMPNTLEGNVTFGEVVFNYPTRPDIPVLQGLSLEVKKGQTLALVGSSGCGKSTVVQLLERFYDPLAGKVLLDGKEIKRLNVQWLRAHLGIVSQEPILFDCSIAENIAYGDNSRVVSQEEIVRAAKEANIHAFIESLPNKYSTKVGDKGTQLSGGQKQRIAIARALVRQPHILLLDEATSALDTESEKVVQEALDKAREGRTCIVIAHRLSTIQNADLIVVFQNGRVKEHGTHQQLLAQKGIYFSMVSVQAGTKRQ
Chain of P-glycoprotein (ABCB1) (P08183 whole entry): as above

## O=c1c2ccccc2sc2cc(OCC(O)CCl)cc(O)c12 (configuration not stated)
[1]
  Activity: inactive
[2]
  C0: 44300 ng/mL
[3]
  AUC(0-t): 1250 ng·h/mL
[4]
  half-life: 21 min
[5]
  k el: 0.000569 s⁻¹
[6]
  F: 100%
[7]
  Cmax: 49 ng/mL
[8]
  Tmax: 12.6 min
[9]
  AUC(0-t): 23 ng·h/mL
[10]
  half-life: 23.4 min
[11]
  k el: 0.000539 s⁻¹
[12]
  bioavailability: 0.6%
[13]
  TGI: 61.6%
[14]
  Activity: 6.19%
[15]
  TGI: 52.6%
[16]
  Activity: 3.52%
[17]
  Survival: 80%
[18]
  Survival: 100%
[19]
  inhibition (INH): Active
[20]
  Activity: 707%
[21]
  inhibition at 1 h, 100 µM: 70.4%

## COc1ccc(CCN(C)CCCC(C#N)(c2ccc(OC)c(OC)c2)C(C)C)cc1OC (configuration not stated) [VERAPAMIL]
[19]
  inhibition (INH): Active
[20]
  Activity: 319%

## O=c1c2ccccc2oc2cc(OCC(O)CCl)cc(O)c12 (configuration not stated)
[19]
  inhibition (INH): Active

## COc1cccc2c(=O)c3c(O)cc(OCC(O)CO)cc3oc12 (configuration not stated)
[19]
  inhibition (INH): Active

## O=c1c2ccccc2oc2cc(OCC(O)CO)cc(O)c12 (configuration not stated)
[19]
  inhibition (INH): Active

## COc1cccc2c(=O)c3c(OCC4CS4)cc(OCC4CS4)cc3oc12 (configuration not stated)
[19]
  inhibition (INH): Active

## COc1cccc2c(=O)c3c(O)cc(OCC(O)CCl)cc3oc12 (configuration not stated)
[19]
  inhibition (INH): Active

## COc1cc(OCC(O)CCl)cc2oc3ccccc3c(=O)c12 (configuration not stated)
[1]
  Activity: inactive
[19]
  inhibition (INH): Active
[20]
  inhibition (INH): Not Active
[22]
  inhibition (INH): Not Active

## COc1cccc2c(=O)c3c(O)cc(OCC4CS4)cc3oc12 (configuration not stated)
[19]
  inhibition (INH): Active

## O=c1c2ccccc2sc2cc(OCC(S)CCl)cc(O)c12 (configuration not stated)
[19]
  inhibition (INH): Active

## O=c1c2ccccc2oc2cc(OCC3CS3)cc(OCC3CS3)c12 (configuration not stated)
[19]
  inhibition (INH): Active

## COc1cccc2c(=O)c3c(O)cc(OCC(S)CCl)cc3oc12 (configuration not stated)
[19]
  inhibition (INH): Active

## O=c1c2ccccc2sc2cc(OCC3CS3)cc(O)c12 (configuration not stated)
[19]
  inhibition (INH): Active
